Laboratory results: ChEMBL document CHEMBL5131511, “Design of artificial α-helical peptides targeting both gp41 deep pocket and subpocket as potent HIV-1 fusion inhibitors” (Eur J Med Chem, 2022)
One block for each substance: values may come before it. The source made the active and inactive calls. The calls are words filed in the database; no cut-off is given here.

Assays:
[1] = system: Human immunodeficiency virus 1; experiment: Antiviral activity against HIV-1 IIIB (B, X4) assessed as inhibition of viral replication measured after 4 days by ELISA; assay type: functional, organism-based; conditions: Human immunodeficiency virus 1, IIIB (B, X4), 96 h
[2] = system: Human immunodeficiency virus 1; experiment: Binding affinity to HIV1 gp41 NHR target surrogate T21 assessed as binding constant, K by isothermal titration calorimetry
[3] = system: Human immunodeficiency virus 1; experiment: Binding affinity to HIV1 gp41 NHR target surrogate T21 assessed as alpha-helicity at 10 uM incubated for 30 mins by CD spectroscopy (reference value: 66 %)
[4] = system: Human immunodeficiency virus 1; experiment: Binding affinity to HIV1 gp41 NHR target surrogate N36 assessed as melting temperature at 10 uM incubated for 30 mins by CD spectroscopy
[5] = system: Human immunodeficiency virus 1; experiment: Binding affinity to HIV1 gp41 NHR target surrogate N36 assessed as alpha-helicity at 10 uM incubated for 30 mins by CD spectroscopy (reference value: 26 %)
[6] = system: Human immunodeficiency virus 1; experiment: Binding affinity to HIV1 gp41 NHR target surrogate T21 at 50 uM incubated for 30 mins by N-PAGE analysis
[7] = Alpha-helicity of compound in PBS buffer at pH 7.4 at 10 uM incubated for 30 mins by CD spectroscopy relative to control; assay type: physicochemical; conditions: pH 7.4, 0.5 h
[8] = system: Human immunodeficiency virus 1; experiment: Binding affinity to HIV1 gp41 NHR target surrogate T21 assessed as melting temperature at 10 uM incubated for 30 mins by CD spectroscopy
[9] = Selectivity ratio of EC50 for antiviral activity against T20-resistant HIV-1 V38A/N42T to EC50 for antiviral activity against T20-sensitive HIV-1 D36G; assay type: functional
[10] = system: Human immunodeficiency virus 1; experiment: Antiviral activity against T20-resistant HIV-1 V38E/N42S assessed as inhibition of viral replication measured after 4 days by ELISA; assay type: functional, organism-based
[11] = system: Human immunodeficiency virus 1; experiment: Antiviral activity against T20-resistant HIV-1 V38A/N42T assessed as inhibition of viral replication measured after 4 days by ELISA; assay type: functional, organism-based
[12] = system: Human immunodeficiency virus 1; experiment: Antiviral activity against HIV-1 IIIB assessed as inhibition of viral replication measured after 4 days by ELISA; assay type: functional, organism-based; conditions: Human immunodeficiency virus 1, IIIB, 96 h
[13] = Selectivity ratio of EC50 for antiviral activity against T20-resistant HIV-1 V38E/N42S to EC50 for antiviral activity against T20-sensitive HIV-1 D36G; assay type: functional
[14] = system: Human immunodeficiency virus 1; experiment: Antiviral activity against T20-sensitive HIV-1 D36G assessed as inhibition of viral replication measured after 4 days by ELISA; assay type: functional, organism-based

Substance: Ac-QEESIKKWEEWSKKIEELIKKSEELIKKIEEQIKK-NH2
K [2]: 1.59 10^5/M
Activity [3]: 100%
Tm [4]: 52 °C
Activity [5]: 92%
Activity [6]: Active
Activity [7]: 63%
EC50 [1]: 64.5 nM
Tm [8]: 74 °C

Substance: Ac-WEEWDKKIEELIKKSEELIKKIEEQIKK-NH2
EC50 [1]: > 10000 nM

Substance: enfuvirtide
Ratio EC50 [9]: 17
EC50 [10]: > 1000 nM
EC50 [11]: 696 nM
EC50 [12]: 8.26 nM
Ratio EC50 [13]: >24
EC50 [14]: 41.1 nM

The remaining substances from weak to strong by EC50 [1], led by results:

EC50 [1]: 68.7 nM
Substance: Ac-QEENNKKWEEWDKKIEELIKKSEELIKKIEEQIKK-NH2

EC50 [1]: 40.8 nM
Substance: Ac-QEESIKKWEEWDKKIEELIKKSEELIKKIEEQIKK-NH2

EC50 [1]: 36.3 nM
Substance: Ac-QIWNNMTWEEWDKKIEELIKKSEELIKKIEEQIKK-NH2
